Measured values from US20250041294A1, “Synergistic compositions for use in the treatment of cancer” (Sartar Therapeutics Oy, priority 2021, published 2025).

What was measured:
Format in all cases: cell-based
[1] = tested on: GIST882, SA4 and GOT3 cell lines; experiment: Cell viability assay (96 well, CellTiter-Glo, 72 hours); details: FIG. 2, cell line not stated
Experimental: Cell viability assay. Cells were plated on 96 Well White/Clear Tissue Culture Treated Plate (FALCON, 353377) 24 hours prior to medium change with drugs. Viabilities of cells in different treatments were evaluated 72 hours after treatment incubation with CellTiter-Glo® Luminescent Cell Viability Assay (G7572, Promega) following manufacturer's instruction. Reagent and cells stabilized to room temperature. Reagent added 100 μl/well, shaken for 2 minutes at room temperature and incubated for 10 min at room temperature before measuring the luminescence by using Hidex Sence microplate reader (Hidex oy). Growth medium was used to exclude background signal from the results.

SA4 cell line [2] = experiment: Drug combination testing with concentration matrices, SynergyFinder 2.0; details: combination with anagrelide, seven-concentration matrices
Experimental: (§1) Drug combination testing with anagrelide and 12 selected drugs was performed as described above but with selected drugs using drug concentration matrices covering seven different concentrations with 3 replicate sample of each combinations and in two replicate assays. […] The tool implements synergy scoring with four major reference models: HSA, Loewe, Bliss and ZIP models. The degree of a drug combination effect can be readily visualized as a synergy landscape map over the dose matrix and ZIP synergy score.

GIST882 cell line [3] = experiment: as above; details: combination with anagrelide, seven-concentration matrices
Experimental: as §1

GOT3 cell line [4] = experiment: as above; details: combination with anagrelide, seven-concentration matrices
Experimental: as §1

GOT3 and SA4 cell lines = experiment: High throughput drug sensitivity and resistance test, average over cell lines (anagrelide combination); details: anagrelide combination, average of SA4 and GOT3; aDSS higher than 3.0 = synergy
Experimental: (§2) Cell lines. PDE3A-positive (GIST882, SA4, and GOT3) and PDE3A-negative cell lines (93TT449, 94T778, LPS141, MLS17656-92, MLS402-91, and SW872) were cultured in RPMI Medium 1640 (Gibco) with 5-, 10- or 20% fetal bovine serum (FBS, gibco), 100 U/mL of penicillin, 100 […] and 0.03 mg/mL of L-glutamine (Pen Strep Glut, Gibco, 10378-016) in a humidified, 5% CO2 atmosphere at 37° C.
(§3) High throughput drug sensitivity and resistance test. A sensitivity and resistance of cancer cell lines to 528 compounds were investigated in 9 cell lines (GIST882, SA4, GOT3, 93TT449, 94T778, LPS141, MLS17656-92, MLS402-91, and SW872). In addition, same compounds were investigated together with anagrelide hydrochloride (100 nM) treatment in the PDE3A low expressing cell lines SA4 and GOT3, and with BAY2666605 (40 nM) in all PDE3A-positive cell lines GIST882, SA4 and GOT3. The compounds were dissolved in 100% dimethyl sulfoxide or water and plated in 10-fold dilutions covering a 10,000-fold concentration range on flat clear bottom 384-well microplates as described in detail earlier (Pulkka O P, et al 2019). A cell viability was measured after 72 hours using CellTiter-Glo Cell Viability assay (Promega Inc.) and PHERAstar FS plate reader (BMG Labtech). The data were normalized to negative (0.01% dimethyl sulfoxide only) and positive (100 μmol/L benzethonium chloride) controls.
(§4) A four-parameter logistic dose-response curves were estimated by using the Marquardt-Levenberg algorithm and Breeze analysis platform. Drug responses to the test compounds were measured using the drug sensitivity score (DSS). Drug synergy partners, which were common in investigated cell lines were identified as following: DSS value of a single agent was subtracted from the DSS value of anagrelide-drug combination in single cell lines. […] The analysis was repeated by using BAY2666605 as a PDE3A modulator.

[5] = tested on: GIST882, GOT3 and SA4 cell lines; experiment: High throughput drug sensitivity and resistance test, average over cell lines (BAY2666605 combination); details: for synergy in high-throughput screening (in words): with anagrelide (GOT3, SA4) or BAY2666605 (GIST882, GOT3, SA4); for Average DSS (aDSS): BAY2666605 combination, average of GIST882, SA4 and GOT3, aDSS higher than 3.0 = synergy
Experimental: as §2, §3, §4

SA4 cell line [6] = experiment: High throughput drug sensitivity and resistance test (CellTiter-Glo, 72 hours); details: SA4; for SA4 cell line: DSS(combo (anagrelide))-DSS(drug): drug combined with anagrelide hydrochloride (100 nM) minus drug alone; for SA4 cell line: DSS(combo (BAY2666605))-DSS(drug): drug combined with BAY2666605 (40 nM) minus drug alone
Experimental: as §2, §3, §4

GOT3 cell line [7] = experiment: as above; details: GOT3; for GOT3 cell line: DSS(combo (anagrelide))-DSS(drug): drug combined with anagrelide hydrochloride (100 nM) minus drug alone; for GOT3 cell line: DSS(combo (BAY2666605))-DSS(drug): drug combined with BAY2666605 (40 nM) minus drug alone
Experimental: as §2, §3, §4

GIST882 cell line [8] = experiment: as above; details: drug combined with BAY2666605 (40 nM) minus drug alone
Experimental: High throughput drug sensitivity and resistance test. […] In addition, same compounds were investigated together with anagrelide hydrochloride (100 nM) treatment in the PDE3A low expressing cell lines SA4 and GOT3, and with BAY2666605 (40 nM) in all PDE3A-positive cell lines GIST882, SA4 and GOT3. […] A cell viability was measured after 72 hours using CellTiter-Glo Cell Viability assay (Promega Inc.) and PHERAstar FS plate reader (BMG Labtech). The data were normalized to negative (0.01% dimethyl sulfoxide only) and positive (100 μmol/L benzethonium chloride) controls.
as §4

| SMILES | synergy with Bcl-family inhibitor A-1155463 (in words) [1] | synergy with Bcl-family inhibitor A-1155463 (in words) ([1]; listed as cilostazol) | Average ZIP synergy score (SA4 cell line [2]) | Average ZIP synergy score (GIST882 cell line [3]) | Average ZIP synergy score (GOT3 cell line [4]) | Average DSS (aDSS) (GOT3 and SA4 cell lines) | synergy in high-throughput screening (in words) [5] | SA4 cell line: DSS(combo (anagrelide))-DSS(drug) (SA4 cell line [6]) | GOT3 cell line: DSS(combo (anagrelide))-DSS(drug) (GOT3 cell line [7]) | GIST882 cell line: DSS(combo (BAY2666605))-DSS(drug) (GIST882 cell line [8]) | Average DSS (aDSS) [5] | SA4 cell line: DSS(combo (BAY2666605))-DSS(drug) (SA4 cell line [6]) | GOT3 cell line: DSS(combo (BAY2666605))-DSS(drug) (GOT3 cell line [7]) |
| --- | --- | --- | --- | --- | --- | --- | --- | --- | --- | --- | --- | --- | --- |
| O=C1CCc2cc(OCCCCc3nnnn3C3CCCCC3)ccc2N1 [Cilostazol] | does not show synergy | not however achieved | – | – | – | – | – | – | – | – | – | – | – |
| CCN1C(=O)CNc2ncc(-c3ccc(-c4nc[nH]n4)nc3C)nc21 [CC-115] | – | – | 4.1 | 3.1 | 1.6 | 5.15 | synergistic | 9.5 | 0.8 | – | – | – | – |
| Cc1nc(Nc2n[nH]c3c2CN(C(=O)N[C@H](CN(C)C)c2ccccc2)C3(C)C)c2sccc2n1 [PF-03758309] | – | – | 16.8 | 11.5 | 8.5 | 11.9 | synergistic | 20.1 | 3.7 | 0.5 | 3.4 | 13.4 | −3.6 |
| CO[C@H]1C[C@@H]2CC[C@@H](C)[C@@](O)(O2)C(=O)C(=O)N2CCCC[C@H]2C(=O)O[C@H]([C@H](C)C[C@@H]2CC[C@@H](OCCO)[C@H](OC)C2)CC(=O)[C@H](C)/C=C(\C)[C@@H](O)[C@@H](OC)C(=O)[C@H](C)C[C@H](C)/C=C/C=C/C=C/1C [Everolimus, everolimus] | – | – | 5.5 | 5 | 2.3 | 5.55 | synergistic | 8.1 | 3 | 3 | 6.5 | 12.4 | 4.1 |
| CO[C@H]1C[C@@H]2CC[C@@H](C)[C@@](O)(O2)C(=O)C(=O)N2CCCC[C@H]2C(=O)O[C@H]([C@H](C)C[C@@H]2CC[C@@H](OC(=O)C(C)(CO)CO)[C@H](OC)C2)CC(=O)[C@H](C)/C=C(\C)[C@@H](O)[C@@H](OC)C(=O)[C@H](C)C[C@H](C)/C=C/C=C/C=C/1C [Temsirolimus, temsirolimus] | – | – | 3.6 | 2.8 | 0.4 | 5.45 | synergistic | 9.8 | 1.1 | 7.4 | 4.6 | 5.3 | 1.2 |
| CC(C)C[C@@H](C(=O)N[C@H](C(=O)OC1CCCC1)c1ccccc1)[C@H](O)C(=O)NO [Tosedostat, tosedostat] | – | – | – | – | – | 3.8 | synergistic | 5.1 | 2.5 | 21 | 14.1 | 14.6 | 6.7 |
| NS(=O)(=O)OC[C@@H]1C[C@@H](n2ccc3c(N[C@H]4CCc5ccccc54)ncnc32)C[C@@H]1O [Pevonedistat, pevonedistat] | – | – | 7.8 | 4.6 | 12.7 | 8.25 | synergistic | 13.8 | 2.7 | 9.3 | 7.5 | 7 | 6.2 |
| Cn1cc(CNCC2CCN(c3ncc(C(=O)NO)cn3)CC2)c2ccccc21 [Quisinostat, quisinostat] | – | – | 8.7 | 6.5 | 6.9 | 8.85 | synergistic | 15.8 | 1.9 | 8.7 | 11.0 | 16.2 | 8 |
| CO[C@H]1C[C@@H]2CC[C@@H](C)[C@@](O)(O2)C(=O)C(=O)N2CCCC[C@H]2C(=O)O[C@H]([C@H](C)C[C@@H]2CC[C@@H](O)[C@H](OC)C2)CC(=O)[C@H](C)/C=C(\C)[C@@H](O)[C@@H](OC)C(=O)[C@H](C)C[C@H](C)/C=C/C=C/C=C/1C [Sirolimus, sirolimus] | – | – | – | – | – | 6.45 | – | 9.5 | 3.4 | 3.4 | 4.4 | 7.9 | 2 |
| Cc1ccc(NS(=O)(=O)c2cccc(C#N)c2)c2[nH]cc(C#N)c12 [E7820] | – | – | 14.8 | 3 | 1.6 | 12.85 | synergistic | 18.2 | 7.5 | – | – | – | – |
| O=C(CCCCCCC(=O)Nc1ccccc1)NO [Vorinostat, vorinostat] | – | – | – | – | – | 3.25 | synergistic | 7.2 | −0.7 | 4.2 | 6.5 | 13.7 | 1.6 |
| Cc1[nH]c2ccccc2c1CCNCc1ccc(/C=C/C(=O)NO)cc1 [Panobinostat, panobinostat] | – | – | – | – | – | 5.6 | – | 11.7 | −0.5 | 6.1 | 7.0 | 6.7 | 8.2 |
